Reference: US10723733B2, “Hepatitis B antiviral agents” (Enanta Pharmaceuticals, Inc., priority 2017, dated 2020)

System: HBV
Experiment: HepAD38 antiviral assay: reduction of viral product accumulation (virion DNA by qPCR, HBsAg/HBeAg by ELISA)
Assay type: cell-based
Conditions: Hepatitis B virus, 120 h; HepAD38 cells; 50% reduction of viral product accumulation vs no drug controls; five days after compound addition; class symbols
Protocol: Methods: HepAD38 cells are maintained as previously reported (Ladner et al, Antimicrob. Agents Chemother. 1997, […], 1715). Briefly, cells are passaged upon attaining confluency in DMEM/F12 media in the presence of 10% FBS, Penn/Strep, 250 μg/mL G418, and 1 μg/ml tetracycline. Novel compounds are screened by first washing cells three times with PBS to remove tetracycline, and plating in 96 well plates at 35,000 cells/well. Compounds dissolved in DMSO are then diluted 1:200 into wells containing cells. Five days after compound addition, material is harvested for analysis. For an extended 8 day analysis, cells are plated and treated as described above, but media and compound are refreshed on d2 and d5 post initial treatment.
On harvest day, virion DNA is obtained by lysing with Sidestep Lysis and Stabilization Buffer and then quantified via quantitative real time PCR. Commercially available ELISA kits are used to quantitate the viral proteins HBsAg (Alpco) or HbeAg (US Biological) by following the manufacturer's recommended protocol after diluting samples to match the linear range of their respective assays. Irrespective of readout, compound concentrations that reduce viral product accumulation in the cell lysates or supernatants by 50% relative to no drug controls (EC50) are reported; EC50 ranges are as follows: A<0.1 μM; B 0.1-1 μM; C>1 μM.

Compared with `CC(C)(C)OC(=O)N[C@H]1CC2=C(c3cnn(C(F)F)c3)[C@H](c3ccc(F)cc3Cl)N=C(c3nccs3)N2C1` [Example 2], `CC(C)S(=O)(=O)N[C@H]1CC2=C(c3cnn(C(F)F)c3)[C@H](c3ccc(F)cc3Cl)N=C(c3nccs3)N2C1` [Example 24] is lower in EC50: 100 to 1000 nM for the first, under 100 nM for the second. The second is the more potent here.

`O=S(=O)(N[C@H]1CC2=C(c3cnn(CC(F)(F)F)c3)[C@H](c3ccc(F)cc3Cl)N=C(c3nccs3)N2C1)C1CC1` [Example 7] and `CCCCS(=O)(=O)N[C@H]1CC2=C(c3cnn(C(F)F)c3)[C@H](c3ccc(F)cc3Cl)N=C(c3nccs3)N2C1` [Example 23] cannot be ordered by EC50: under 100 nM for the first, under 100 nM for the second.

`C[C@H]1OC[C@@](F)(CC2=C(c3cnn(C(F)F)c3)[C@H](c3ccc(F)cc3Cl)N=C(c3nccs3)N2)CO1` [Example 140] and `OC1CCCC1CC1=C(c2cnn(C(F)F)c2)[C@H](c2ccc(F)cc2Cl)N=C(c2nccs2)N1` (stereo partly shown) [Example 45] fall in the same range of EC50: 100 to 1000 nM for the first, 100 to 1000 nM for the second.

First: COC(=O)N[C@@]1(CO)CC2=C(c3ccn(C(F)F)n3)[C@H](c3ccc(F)cc3Cl)N=C(c3nccs3)N2C1 [Example 84]
Second: CN(C)C(=O)NCC1(F)CC2=C(c3cnn(C(F)F)c3)[C@H](c3ccc(F)cc3Cl)N=C(c3nccs3)N2C1 (stereo partly shown) [Example 44]
The EC50 of the first is lower: under 100 nM for the first, 100 to 1000 nM for the second.

`CS(=O)(=O)OC[C@@]1(F)CC2=C(c3cnn(C(F)F)c3)[C@H](c3ccc(F)cc3Cl)N=C(c3nccs3)N2C1` [Example 35] and `CC(=O)OC[C@]1(CC2=C(c3ccn(C(F)F)n3)[C@H](c3ccc(F)cc3Cl)N=C(c3nccs3)N2)COC(=O)N1` [Example 97] fall in the same range of EC50: 100 to 1000 nM for the first, 100 to 1000 nM for the second.

For `O=C[C@@]1(CC2=C(c3ccn(C(F)F)n3)[C@H](c3ccc(F)cc3Cl)N=C(c3nccs3)N2)COC(=O)N1` [Example 91], the EC50 was under 100 nM.

Same assay, conditions: Hepatitis B virus, 120 h; HepAD38 cells; 50% reduction of viral product accumulation vs no drug controls; five days after compound addition; given as numeric bound

`CN(C)C(=O)NCC1CC2=C(c3cnn(C(F)F)c3)[C@H](c3ccc(F)cc3Cl)N=C(c3nccs3)N2C1` (stereo partly shown) [Example 32] and `COC(=O)NCC1CC2=C(c3cnn(C(F)F)c3)[C@H](c3ccc(F)cc3Cl)N=C(c3nccs3)N2C1` (stereo partly shown) [Example 31] cannot be ordered by EC50: over 100 nM for the first, over 100 nM for the second.

`COC(=O)OC[C@]1(N=[N+]=[N-])CC2=C(c3cnn(C(F)F)c3)[C@H](c3ccc(F)cc3Cl)N=C(c3nccs3)N2C1` [Example 54] and `[N-]=[N+]=N[C@@]1(CO)CC2=C(c3cnn(C(F)F)c3)[C@H](c3ccc(F)cc3Cl)N=C(c3nccs3)N2C1` [Example 48] cannot be ordered by EC50: over 400 nM for the first, over 400 nM for the second.

`COC(=O)N[C@]1(C(=O)NCCC(=O)O)CC2=C(c3ccn(C(F)F)n3)[C@H](c3ccc(F)cc3Cl)N=C(c3nccs3)N2C1` [Example 81] and `COC(=O)N[C@@]1(C(=O)OC)CC2=C(c3ccn(C(F)F)n3)[C@H](c3ccc(F)cc3Cl)N=C(c3nccs3)N2C1` [Example 82] cannot be ordered by EC50: over 400 nM for the first, over 400 nM for the second.

`O=C(N[C@H]1CC2=C(c3cnn(C(F)F)c3)[C@H](c3ccc(F)cc3Cl)N=C(c3nccs3)N2C1)NS(=O)(=O)C1CC1` [Example 16] and `CC(=O)NS(=O)(=O)N[C@H]1CC2=C(c3cnn(C(F)F)c3)[C@H](c3ccc(F)cc3Cl)N=C(c3nccs3)N2C1` [Example 20] cannot be ordered by EC50: over 100 nM for the first, over 400 nM for the second.

`COC(=O)N[C@]1(COC(=O)NCC(=O)O)CC2=C(c3ccn(C(F)F)n3)[C@H](c3ccc(F)cc3Cl)N=C(c3nccs3)N2C1` [Example 77] and `COC[C@@]1(NC(=O)OC)CC2=C(c3ccn(C(F)F)n3)[C@H](c3ccc(F)cc3Cl)N=C(c3nccs3)N2C1` [Example 85] cannot be ordered by EC50: over 400 nM for the first, over 400 nM for the second.

`C=CC[C@]1(COS(C)(=O)=O)CC2=C(c3cnn(C(F)F)c3)[C@H](c3ccc(F)cc3Cl)N=C(c3nccs3)N2C1` [Example 39] and `C[C@@]1(CN=[N+]=[N-])CC2=C(c3cnn(C(F)F)c3)[C@H](c3ccc(F)cc3Cl)N=C(c3nccs3)N2C1` [Example 37] cannot be ordered by EC50: over 400 nM for the first, over 400 nM for the second.

`COC(=O)NC[C@@]1(O)CC2=C(c3ccn(C(F)F)n3)[C@H](c3ccc(F)cc3Cl)N=C(c3nccs3)N2C1` [Example 117] and `CC(=O)NC[C@@]1(O)CC2=C(c3ccn(C(F)F)n3)[C@H](c3ccc(F)cc3Cl)N=C(c3nccs3)N2C1` [Example 116] cannot be ordered by EC50: over 400 nM for the first, over 400 nM for the second.

`CCOC(=O)NC[C@@H]1CN(CC2=C(c3ccn(C(F)F)n3)[C@H](c3ccc(F)cc3Cl)N=C(c3nccs3)N2)C(=O)O1` [Example 129] and `CCOC(=O)NC[C@H]1CN(CC2=C(c3ccn(C(F)F)n3)[C@H](c3ccc(F)cc3Cl)N=C(c3nccs3)N2)C(=O)O1` [Example 126] cannot be ordered by EC50: over 400 nM for the first, over 400 nM for the second.

`C=CCOCC(F)(COC)CC1=C(c2cnn(C(F)F)c2)[C@H](c2ccc(F)cc2Cl)N=C(c2nccs2)N1` (stereo partly shown) [Example 136] and `C[C@H]1OC[C@](F)(CC2=C(c3cnn(C(F)F)c3)[C@H](c3ccc(F)cc3Cl)N=C(c3nccs3)N2)CO1` [Example 139] cannot be ordered by EC50: over 400 nM for the first, over 400 nM for the second.

`CC(C)(C)OC(=O)NC[C@@H]1CN(CC2=C(c3ccn(C(F)F)n3)[C@H](c3ccc(F)cc3Cl)N=C(c3nccs3)N2)C(=O)O1` [Example 127] and `COC(=O)NC[C@H]1CN(CC2=C(c3ccn(C(F)F)n3)[C@H](c3ccc(F)cc3Cl)N=C(c3nccs3)N2)C(=O)O1` [Example 125] cannot be ordered by EC50: over 400 nM for the first, over 400 nM for the second.

`OC[C@]1(O)CC2=C(c3ccn(C(F)F)n3)[C@H](c3ccc(F)cc3Cl)N=C(c3nccs3)N2C1` [Example 123] and `CS(=O)(=O)NC[C@]1(O)CC2=C(c3ccn(C(F)F)n3)[C@H](c3ccc(F)cc3Cl)N=C(c3nccs3)N2C1` [Example 118] cannot be ordered by EC50: over 400 nM for the first, over 400 nM for the second.

`OCC1CC2=C(c3cnn(C(F)F)c3)[C@H](c3ccc(F)cc3Cl)N=C(c3nccs3)N2C1` (stereo partly shown) [Example 27] and `O=S(=O)(NCC1CC2=C(c3cnn(C(F)F)c3)[C@H](c3ccc(F)cc3Cl)N=C(c3nccs3)N2C1)C1CC1` (stereo partly shown) [Example 33] cannot be ordered by EC50: over 100 nM for the first, over 100 nM for the second.

`COC(=O)CC[C@]1(CC2=C(c3ccn(C(F)F)n3)[C@H](c3ccc(F)cc3Cl)N=C(c3nccs3)N2)COC(=O)N1` [Example 106] and `O=C(O)CC[C@]1(CC2=C(c3ccn(C(F)F)n3)[C@H](c3ccc(F)cc3Cl)N=C(c3nccs3)N2)COC(=O)N1` [Example 107] cannot be ordered by EC50: over 400 nM for the first, over 400 nM for the second.

`COC[C@]1(CC2=C(c3ccn(C(F)F)n3)[C@H](c3ccc(F)cc3Cl)N=C(c3nccs3)N2)COC(=O)N1` [Example 99] and `CC(=O)[C@]1(CC2=C(c3ccn(C(F)F)n3)[C@H](c3ccc(F)cc3Cl)N=C(c3nccs3)N2)COC(=O)N1` [Example 108] cannot be ordered by EC50: over 400 nM for the first, over 400 nM for the second.

`COC(=O)[C@]1(NC(=O)OC(C)(C)C)CC2=C(c3ccn(C(F)F)n3)[C@H](c3ccc(F)cc3Cl)N=C(c3nccs3)N2C1` [Example 65] and `COC(=O)[C@@]1(NS(=O)(=O)C2CC2)CC2=C(c3ccn(C(F)F)n3)[C@H](c3ccc(F)cc3Cl)N=C(c3nccs3)N2C1` [Example 68] cannot be ordered by EC50: over 400 nM for the first, over 400 nM for the second.

`O=S(=O)(N[C@H]1CC2=C(c3cc[nH]n3)[C@H](c3ccc(F)cc3Cl)N=C(c3nccs3)N2C1)C1CC1` [Example 4] and `CS(=O)(=O)N[C@]1(CO)CC2=C(c3ccn(C(F)F)n3)[C@H](c3ccc(F)cc3Cl)N=C(c3nccs3)N2C1` [Example 69] cannot be ordered by EC50: over 100 nM for the first, over 400 nM for the second.

`[N-]=[N+]=NC[C@@]1(N=[N+]=[N-])CC2=C(c3cnn(C(F)F)c3)[C@H](c3ccc(F)cc3Cl)N=C(c3nccs3)N2C1` [Example 53] and `Fc1ccc([C@@H]2N=C(c3nccs3)N3C[C@@H](OCc4ccccc4)CC3=C2c2cnn(C(F)F)c2)c(Cl)c1` [Example 25] cannot be ordered by EC50: over 400 nM for the first, over 200 nM for the second.

`COC(=O)C(O)(CO)CC1=C(c2ccn(C(F)F)n2)[C@H](c2ccc(F)cc2Cl)N=C(c2nccs2)N1` (stereo partly shown) [Example 112] was tested, and the EC50 was over 400 nM.
